Values after ≈ are worked out from the molar mass of the structure shown. Some results are limits rather than exact numbers.

Holding throughout (type): cell-based
One assay has as its system E. coli ΔtolC. In words: microbe, parasite or virus in culture. Particulars: Escherichia coli, 16 h, read-out: MIC E. coli ΔtolC, small panel, Tables 1a/1b; no visual growth after approx. 16 h. Here is the method:
(§1) Cystobactamid derivatives synthesized were tested against relevant Gram negative and positive bacteria of clinical interest. Experimental procedures used for the biological characterization of the compounds are the same as previously described in WO 2016/082934.
(§2) Bacterial strains used in susceptibility assays (minimum inhibitory concentration, MIC) were either part of our internal strain collection or purchased from the German Collection of Microorganisms and Cell Cultures (Deutsche Sammlung von Mikroorganismen und Zellkulturen, DSMZ) and the American Type Culture Collection (ATCC). The susceptible E. coli strain (WT) and fluoroquinolone-resistant mutants E. coli WT-3 and WT-III were kindly provided by Prof Dr. P. Heisig, Pharmaceutical Biology and Microbiology, University of Hamburg, Germany. The efflux-deficient strain P. aeruginosa ΔmexAB was kindly provided by Prof Dr. S. Häußler, Institute for Molecular Bacteriology, TWINCORE, Hannover, Germany. All compounds were prepared as DMSO stocks and MIC values were determined in standard microbroth dilution assays in 96-well MTPs as described in Baumann et al., Angew Chem Int Ed Engl. 2014; 53(52):14605-9. In brief, overnight cultures of bacteria were diluted in either tryptic soy broth (TSB: 1.7% peptone casein, 0.3% peptone soymeal, 0.25% glucose, 0.5% NaCl, 0.25% K2HPO4; pH 7.3; S. pneumoniae and E. faecalis) or cation-adjusted Müller-Hinton Broth (BBL™, BD; all other bacteria) and adjusted to 10^4-10^6 cfu/mL. Bacteria were grown in the presence of the derivatives in serial dilution for approx. 16 h at 30-37° C. MIC values were determined and were defined as the antibiotic concentration at which no visual growth of bacteria was observed.

The subject of a further assay is P. aeruginosa ΔmexAB. In words: microbe, parasite or virus in culture. Particulars: Pseudomonas aeruginosa, 16 h, read-out: MIC P. aeruginosa ΔmexAB, efflux-deficient strain; small panel, Tables 1a/1b. Here is the method:
as §1, §2

For a further assay, the system named is E. coli WT DSM-1116. Nature of the assay: MIC, microbroth dilution susceptibility assay. Particulars: Escherichia coli, DSM1116; small panel, Tables 1a/1b; no visual growth after approx. 16 h; read-out: MIC E. coli WT DSM-1116. Here is the method:
as §1, §2
For orientation: Dilution methods test growth across graded concentrations, often in twofold steps.

The next assay has as its system P. aeruginosa WT PA14. Nature of the assay: MIC, microbroth dilution susceptibility assay. Particulars: Pseudomonas aeruginosa, PA14, small panel, Tables 1a/1b; read-out: MIC P. aeruginosa WT PA14. Here is the method:
as §1, §2

The subject of a further assay is S. aureus Newman. In words: MIC, microbroth dilution susceptibility assay. The following applies: Staphylococcus aureus, NEWMAN; small panel, Tables 1a/1b; read-out: MIC S. aureus Newman. The protocol: as §1, §2

In the case of `CC(C)Oc1c(NC(=O)c2ccc(NC(=O)[C@H](CC(N)=O)NC(=O)c3ccc(NC(=O)c4ccc5c(c4)COC5=O)cc3)cc2)ccc(C(=O)Nc2ccc(C(=O)O)cc2)c1O` [Compound 57, (S)-4-(4-(4-(4-amino-4-oxo-2-(4-(1-oxo-1,3-dihydroisobenzofuran-5-carboxamido)benzamido)butanamido)benzamido)-2-hydroxy-3-isopropoxybenzamido)benzoic acid], the MIC in the assay on E. coli ΔtolC is less than 0.03 µg/mL; in the assay with P. aeruginosa ΔmexAB, 1 µg/mL (≈ 1.19 µM); in the assay with E. coli WT DSM-1116 it was less than 0.03 µg/mL; in the assay with P. aeruginosa WT PA14, more than 64 µg/mL; in the assay on S. aureus Newman it was 1 µg/mL (≈ 1.19 µM).
Consider `CC(C)Oc1c(NC(=O)c2ccc(NC(=O)[C@H](CC(N)=O)NC(=O)c3ccc(NC(=O)c4ccc(C#N)c(F)c4)cc3)cc2)ccc(C(=O)Nc2ccc(C(=O)O)cc2)c1O` [Compound 51, (S)-4-(4-(4-(4-amino-2-(4-(4-cyano-3-fluorobenzamido)benzamido)-4-oxobutanamido)benzamido)-2-hydroxy-3-isopropoxybenzamido)benzoic acid], for which the MIC in the assay with E. coli ΔtolC is not above 0.03 µg/mL; with P. aeruginosa ΔmexAB it was 0.5 µg/mL (≈ 0.603 µM); in the assay on E. coli WT DSM-1116 it was 0.25 µg/mL (≈ 0.301 µM); in the assay with P. aeruginosa WT PA14, 8 µg/mL (≈ 9.64 µM); in the assay on S. aureus Newman it was 2 µg/mL (≈ 2.41 µM).
For `CC(C)Oc1c(NC(=O)c2ccc(NC(=O)[C@H](CC(N)=O)NC(=O)c3ccc(NC(=O)c4ccc([N+](=O)[O-])c(OC(C)C)c4O)cc3)cc2)ccc(C(=O)Nc2ccc(C(=O)O)cc2)c1O` [Compound 48, (S)-4-(4-(4-(4-amino-2-(4-(2-hydroxy-3-isopropoxy-4-nitrobenzamido)benzamido)-4-oxobutanamido)benzamido)-2-hydroxy-3-isopropoxybenzamido)benzoic acid], in that order: more than 64 µg/mL, more than 64 µg/mL, more than 64 µg/mL, more than 64 µg/mL and more than 64 µg/mL.
Regarding `CC(=O)Nc1ccc(C(=O)Nc2ccc(C(=O)N[C@@H](CC(N)=O)C(=O)Nc3ccc(C(=O)Nc4ccc(C(=O)Nc5ccc(C(=O)O)cc5)c(O)c4OC(C)C)cc3)cc2)cc1` [Compound 36, (S)-4-(4-(4-(2-(4-(4-acetamidobenzamido)benzamido)-4-amino-4-oxobutanamido)benzamido)-2-hydroxy-3-isopropoxybenzamido)benzoic acid], the MIC in the assay on E. coli ΔtolC is 0.06 µg/mL (≈ 0.0711 µM); in the assay on P. aeruginosa ΔmexAB, more than 64 µg/mL; in the assay with E. coli WT DSM-1116, 16 µg/mL (≈ 19 µM); in the assay on P. aeruginosa WT PA14 it was more than 64 µg/mL; in the assay on S. aureus Newman, 64 µg/mL (≈ 75.8 µM).
On to `C/C(=C\c1ccc(C#N)cc1)C(=O)Nc1ccc(C(=O)N[C@@H](CC(N)=O)C(=O)Nc2ccc(C(=O)Nc3ccc(C(=O)Nc4ccc(C(=O)O)cc4)c(O)c3OCC(C)C)cc2)cc1` [Compound 125, (S,E)-4-(4-(4-(4-amino-2-(4-(3-(4-cyanophenyl)-2-methylacrylamido)benzamido)-4-oxobutanamido)benzamido)-2-hydroxy-3-isobutoxybenzamido)benzoic acid], for which the MIC in the assay on E. coli ΔtolC is 0.06 µg/mL (≈ 0.0693 µM); with P. aeruginosa ΔmexAB, more than 64 µg/mL; in the assay with E. coli WT DSM-1116, 0.5 µg/mL (≈ 0.577 µM); in the assay with P. aeruginosa WT PA14, more than 64 µg/mL; in the assay with S. aureus Newman, 0.06 µg/mL (≈ 0.0693 µM).
Turning to `CC(C)Oc1c(NC(=O)c2ccc(NC(=O)[C@H](CC(N)=O)NC(=O)c3ccc(NC(=O)c4ccc(C#N)cc4)cc3)cc2)ccc(C(=O)Nc2cc(C(=O)O)n(C)c2)c1O` [Compound 88, (S)-4-(4-(4-(4-amino-2-(4-(4-cyanobenzamido)benzamido)-4-oxobutanamido)benzamido)-2-hydroxy-3-isopropoxybenzamido)-1-methyl-1H-pyrrole-2-carboxylic acid], the MIC with E. coli ΔtolC was less than 0.03 µg/mL; with P. aeruginosa ΔmexAB it was 8 µg/mL (≈ 9.82 µM); in the assay on E. coli WT DSM-1116, 0.5 µg/mL (≈ 0.614 µM); in the assay with P. aeruginosa WT PA14, more than 64 µg/mL; in the assay with S. aureus Newman, 64 µg/mL (≈ 78.5 µM).

The values above are taken from US11034648B2, “Cystobactamide derivatives” (priority 2017, dated 2021).
